From US11724999B2, “Inhibitors of RAS-effector protein interactions” (Oxford University Innovation Limited, priority 2018, dated 2023) come the findings set out here.

Assay [1] relates to H358 cells (ATCC CRL-5807). As to the kind of experiment: Cell viability assay (CellTiter-Glo), H358 cells. The note with it: Homo sapiens, NCI-H358, 48 h incubation, first value of the cell, read-out: Cell Viability (μM) H358 (concentration that decreases cell viability by 50%). The format is cell-based. As for the experimental part:
(§1) Cells (A549 ATCC CCL-185) are cultured in Dulbecco's Modified Eagle's Medium plus 10% foetal calf serum and 2 mM L-glutamine at 37° C., 5% CO2. Cells are plated onto white clear bottom 96-well plates (5000 cells/well in 200 μl media) and left to adhere overnight at 37° C., 5% CO2. Next day, test compound (1 μl at 200× concentration in 100% DMSO) is added to give final test compound concentration 1× in 0.5% DMSO. After 48 h of incubation at 37° C., 5% CO2, 20 μl CellTiter-Glo reagent (Promega G7572) is added into each well. Plates are incubated at room temperature with shaking for 30 min and then luminescence is read using a PheraStar plate reader. The concentration of compounds that decrease cell viability by 50% is calculated from dose response curves generated using Dotmatics data analysis software.
In the H358 cell assay, cells (ATCC CRL-5807) are cultured in RPM-1640 medium plus 10% foetal calf serum and 2 mM L-glutamine at 37° C., 5% CO2.

In assay [2] the target is T1, GST-human KRas166 (G12V) GPPNHP (Homo sapiens, UniProt P01116, G12V).
T1 construct: made in house; host or cells: E. coli C41(DE3)
The assay can be described thus: KRas small-molecule screening by SPR (BIACORE T200). The format is binding. The note with it: compound at final concentration of 100 uM; immobilised GST-KRAS166 (G12V) GPPNHP, GST reference channel. On the procedure:
For SPR assays pGEX-KRAS(G12V) plasmid was transformed into E. coli C41(DE3). Bacterial cells were cultured at 37° C. to an OD600 of 0.6 and induced with IPTG (final 0.1 mM) at 18° C. overnight. The GST fusion proteins were extracted from bacteria pellets after cell disruption in 140 mM NaCl, 2.7 mM KCl, […], 1.8 mM KH2PO4, 1 mM EDTA, 2 mM MgCl2 pH 7.4 and purified by glutathione-sepharose column chromatography (GE Healthcare), eluting with 50 mM Tris-HCl pH8.0, 10 mM reduced glutathione, 1 mM DTT, 2 mM MgC2. The eluted proteins were dialysed against 50 mM Tris-HCl pH8.0, 1 mM DTT, 2 mM MgCl2 and concentrated to 10 mg/ml using a Biomax-30 […]-15 centrifugal filter device (Millipore). Purified KRAS protein was loaded with GPPNHP as described elsewhere (Pacold et al., 2000). Loaded protein was then purified by gel filtration on a HiLoad Superdex-75 HR column (GE Healthcare) in 1×PBS pH7.4, 5 mM MgCl2 and concentrated for storage.
To a previously immobilized CM5 chip (GE Healthcare BR-1005-30) with anti GST antibody via amine coupling method, GST in channel 1 and GST-human KRas166 (G12V) GPPNHP in channel 2 were immobilised. GST was immobilised between 2,000 and 5,000 Response units. KRAS166 (G12V) was immobilized between 10,000 to 15,000 Response Units.
In a 96 well plate, compounds were diluted in […], 5 mM MgCl2 and 5% DMSO Buffer to a final concentration of 100 uM. DCAI was used as positive control. Experiment also included a solvent correction curve for 5% DMSO. Screening and evaluation of the protein immobilization and the compounds screening was done accordingly to the BIACORE T200 control and evaluation software.
Protein immobilisation: 10,000 RU; average fragment 300 Da in size. Rmax=(MWA/MWL)×RL×SM MWA is the molecular weight of the analyte in Da MWL is the molecular weight of the ligand in Da RL is the immobilization level in RU SM is the molar stoichiometry (assume 1:1) Rmax=300/47,500×10,000×1 Rmax=63 RU. Cell Viability Assay protocols

The test system of assay [3] is DLD1 cells (ATCC CCL-221). As to the kind of experiment: Cell viability assay (CellTiter-Glo), DLD1 cells. The format is cell-based. The note with it: Homo sapiens, DLD-1 cells, 48 h incubation, second value of the cell, read-out: Cell Viability (μM) DLD-1 (concentration that decreases cell viability by 50%). As for the experimental part:
as §1
In the DLD1 cell assay, cells (ATCC CCL-221) are cultured in RPMI-1640 medium plus 10% foetal calf serum and 2 mM L-glutamine at 37° C., 5% CO2.

Structures are written as SMILES. Bounds are passed on as bounds.

In the case of `O=C(c1ncco1)N(CC1CCN(Cc2ccccc2)CC1)C[C@@H]1COc2ccc(OCc3ccccc3)cc2O1` [Example 42, Oxazole-2-carboxylic acid ((R)-7-benzyloxy-2,3-dihydro-benzo[1,4]dioxin-2-ylmethyl)-(1-benzyl-piperidin-4-ylmethyl)-amide], the IC50 in assay [1] amounted to 29 µM; in assay [3], 3 µM. Also, the “SPR Response Units” value in assay [2] came to 93 Response Units.
As to `CN1CCN(Cc2cnc(C(=O)NC[C@@H]3COc4ccc(OCc5ccccc5)cc4O3)o2)CC1` [Example 4, 5-(4-Methyl-piperazin-1-ylmethyl)-oxazole-2-carboxylic acid ((R)-7-benzyloxy-2,3-dihydro-benzo[1,4]dioxin-2-ylmethyl)-amide], the IC50 in assay [1] is 57 µM; in assay [3], 12 µM. Moreover, in assay [2], the “SPR Response Units” value is recorded as 66 Response Units.
Consider `CN(C)CC(=O)N[C@H]1CC[C@@H](NC[C@@H]2COc3ccc(OCc4ccccc4)cc3O2)CC1` [Example 50, N-{4-[((R)-7-Benzyloxy-2,3-dihydro-benzo[1,4]dioxin-2-ylmethyl)-amino]-cyclohexyl}-2-dimethylamino-acetamide], for which the values for the IC50 in assay [1] and in assay [3] were 28 µM and 5 µM, respectively. For the same molecule, the “SPR Response Units” value in assay [2] came out at 70 Response Units.
Consider `CN(C)CCCOc1ccc(CN(C[C@@H]2COc3ccc(OCc4ccccc4)cc3O2)C(=O)c2ncco2)cc1` [Example 40, Oxazole-2-carboxylic acid ((R)-7-benzyloxy-2,3-dihydro-benzo[1,4]dioxin-2-ylmethyl)-[4-(3-dimethylamino-propoxy)-benzyl]-amide], for which the IC50 in assay [1] was 14 µM; in assay [3], 2 µM. In addition, in assay [2], the “SPR Response Units” value stood at 173 Response Units.
`Cc1ccccc1COc1ccc2c(c1)O[C@H](CNC(=O)C1CCN(C)CC1)CO2` [Example 32, 1-Methyl-piperidine-4-carboxylic acid [(R)-7-(2-methyl-benzyloxy)-2,3-dihydro-benzo[1,4]dioxin-2-ylmethyl]-amide]: the IC50 in assay [1] was 26.2 µM; in assay [3], 15.9 µM. Moreover, the “SPR Response Units” value in assay [2] was determined as 37 Response Units.
The like results for `CN1CCC(C(=O)NC[C@@H]2COc3ccc(OCc4ccc(F)cc4)cc3O2)CC1` [Example 31, 1-Methyl-piperidine-4-carboxylic acid [(R)-7-(4-fluoro-benzyloxy)-2,3-dihydro-benzo[1,4]dioxin-2-ylmethyl]-amide] were, in that order, 18.2 µM, 9.6 µM and 28 Response Units.
Consider `CN1CCC2(CC1)NC(=O)N(C[C@@H]1COc3ccc(OCc4ccccc4)cc3O1)C2=O` [Example 77, 3-((R)-7-Benzyloxy-2,3-dihydro-benzo[1,4]dioxin-2-ylmethyl)-8-methyl-1,3,8-triaza-spiro[4.5]decane-2,4-dione], for which the results for the IC50 in assay [1] and in assay [3] were 59 µM and 4 µM, respectively. In assay [2], the “SPR Response Units” value was determined as 49 Response Units.
The like results for `CN1CCC(C(=O)NC[C@@H]2COc3ccc(OCc4ccc(Cl)cc4)cc3O2)CC1` [Example 18, 1-Methyl-piperidine-4-carboxylic acid [(R)-7-(4-chloro-benzyloxy)-2,3-dihydro-benzo[1,4]dioxin-2-ylmethyl]-amide] were, in that order, 10 µM, 5.4 µM and 61 Response Units.
`COc1ccc(COc2ccc3c(c2)O[C@H](CNC(=O)c2ccc(CN4CCN(C)CC4)o2)CO3)cc1` [Example 22, 5-(4-Methyl-piperazin-1-ylmethyl)-furan-2-carboxylic acid [(R)-7-(4-methoxy-benzyloxy)-2,3-dihydro-benzo[1,4]dioxin-2-ylmethyl]-amide]: the IC50 in assay [1] worked out at 46 µM; in assay [3], 12 µM. In assay [2], the “SPR Response Units” value is reported as 96 Response Units.
Turning to `CN1CCC(CNC[C@@H]2COc3ccc(OCc4ccccc4)cc3O2)CC1` [Example 46, ((R)-7-Benzyloxy-2,3-dihydro-benzo[1,4]dioxin-2-ylmethyl)-(1-methyl-piperidin-4-ylmethyl)-amine], the IC50 in assay [1] was 16 µM; in assay [3] it was 2 µM. For the same molecule, the “SPR Response Units” value in assay [2] was 75 Response Units.
Regarding `CN1CCN(Cc2ccc(C(=O)NC[C@@H]3COc4ccc(OCc5ccccc5)cc4O3)o2)CC1` [Example 2, 5-(4-Methyl-piperazin-1-ylmethyl)-furan-2-carboxylic acid ((R)-7-benzyloxy-2,3-dihydro-benzo[1,4]dioxin-2-ylmethyl)-amide], the IC50 is 43 µM in assay [1] and 10 µM in assay [3]. In addition, in assay [2], the “SPR Response Units” value is given as 224 Response Units.
The matching figures for `CN1CCC(C(=O)NC[C@@H]2COc3ccc(OCc4ccc(F)c(F)c4)cc3O2)CC1` [Example 27, 1-Methyl-piperidine-4-carboxylic acid [(R)-7-(3,4-difluoro-benzyloxy)-2,3-dihydro-benzo[1,4]dioxin-2-ylmethyl]-amide]: 33.2 µM, 5.6 µM and 44 Response Units.
In the case of `O=C(NC[C@@H]1COc2ccc(OCc3ccccc3)cc2O1)c1ncco1` [Example 3, Oxazole-2-carboxylic acid ((R)-7-benzyloxy-2,3-dihydro-benzo[1,4]dioxin-2-ylmethyl)-amide], the values for the IC50 in assay [1] and in assay [3] were above 100 µM and 20 µM, respectively. The “SPR Response Units” value in assay [2] stood at 12 Response Units.
Turning to `O=C(Nc1ncc[nH]1)C1COc2ccc(OCc3ccccc3)cc2O1.O=CO` (stereo not drawn) [Example 61, 7-Benzyloxy-2,3-dihydro-benzo[1,4]dioxine-2-carboxylic acid (1H-imidazol-2-yl)-amide; formic acid salt], the IC50 is above 100 µM in assay [1] and 13 µM in assay [3]. Besides, in assay [2], the “SPR Response Units” value is reported as 25 Response Units.
As to `NCC(=O)N[C@H]1CC[C@@H](NC(=O)C2COc3ccc(OCc4ccccc4)cc3O2)CC1` (stereo partly drawn) [Example 85, 7-Benzyloxy-2,3-dihydro-benzo[1,4]dioxine-2-carboxylic acid [4-(2-amino-acetylamino)-cyclohexyl]-amide], the IC50 in assay [1] was above 100 µM; in assay [3], 10 µM. The “SPR Response Units” value in assay [2] turned out to be 64 Response Units.
For `CN1CCC(C(=O)NC[C@@H]2COc3ccc(OCc4cccc(Cl)c4)cc3O2)CC1` [Example 30, 1-Methyl-piperidine-4-carboxylic acid [(R)-7-(3-chloro-benzyloxy)-2,3-dihydro-benzo[1,4]dioxin-2-ylmethyl]-amide], the values for the IC50 in assay [1] and in assay [3] were 16.2 µM and 3.9 µM, respectively. For the same molecule, the “SPR Response Units” value in assay [2] is 64 Response Units.
`NCc1ccc(CN(C[C@@H]2COc3ccc(OCc4ccccc4)cc3O2)C(=O)c2ncco2)cc1` [Example 44, Oxazole-2-carboxylic acid (4-aminomethyl-benzyl)-((R)-7-benzyloxy-2,3-dihydro-benzo[1,4]dioxin-2-ylmethyl)-amide]: the IC50 in assay [1] is above 100 µM; in assay [3], 9 µM. Also, the “SPR Response Units” value in assay [2] turned out to be 221 Response Units.
